These results are taken from patent US10029986B2, “Alkynyl pyridine-substituted amide compound and pesticide” (NISSAN CHEMICAL INDUSTRIES, LTD., priority 2014, dated 2018).

One data set deals with Botrytis cinerea. The data set is described as follows: Test on the preventive effect against cucumber gray mold (spore inoculation). Format: in vivo. As to conditions: 72 h, test solution A 500 ppm, 5 ml per pot, cucumber cut leaves, conidium inoculation, 3 days at 20° C. In outline:
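Cotyledon-stage cucumber (Sagami Hanjiro) sprayed with 500 ppm compound from emulsifiable concentrate; detached treated leaves inoculated with B. cinerea conidia in PDA (1:1). After 3 days at 20 °C, humid, lesion proportion gave control value; duplicate test.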

The subject of data set [1] is Phaeosphaeria nodorum (Synonym: Septoria nodorum). The data set is described as follows: Test on the preventive effect against wheat glume blotch. Format: in vivo. As to conditions: Parastagonospora nodorum, 144 h; test solution A 500 ppm, 5 ml per pot, wheat 1.3-leaf stage, 2 days inoculation chamber then 6 days at 20° C. In a few lines:
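Wheat (cv. Haruyutaka) at 1.3-leaf stage sprayed with compound at 500 ppm as diluted emulsifiable concentrate, then inoculated one day later with conidial suspension. Kept 2 days at 20° C and 100% RH, then 6 days in a greenhouse at 20° C. Control value derived from lesion proportion on inoculated leaves; duplicate.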

In data set [2] the test system is Southern root-knot nematode (Meloidogyne incognita). The data set is described as follows: Test on the preventive effect against Southern root-knot nematode (garden balsam seedlings). As to conditions: 504 h, test solution B 100 ppm, 1 ml per seedling to base of garden balsam seedlings, 3 weeks in greenhouse, read-out: efficacy (root knot damage degree relative to non-treated plot). Format: in vivo. The procedure:
Compounds of the present invention were dissolved in dimethyl sulfoxide to prepare 1 wt % solutions. Then, distilled water was added to dilute the solutions to the prescribed concentration (100 ppm), and the obtained solutions were used in the following the Test Examples 9 to 12. 1 ml per seedling of test solution B of the compounds of the present invention was treated to the bases of garden balsam seedlings (about 2 weeks after budding) planted in a cell tray of which each cell was filled with 10 g of soil. 1 hour after the application, 1 ml per cell of water containing Southern root-knot nematode (Meloidogyne incognita) 2 L larvae (100 larvae of 2 L/1 ml) was applied to the base. The tray was placed in a greenhouse for 3 weeks, and the degree of root knot on the root was determined in accordance with the following damage index and the damage degree to calculate the efficacy (%) relative to the non-treated plot in accordance with the following formula. • 0: No knot formation was observed. • 1: Knot formations were observed on parts of the root system. • 2: Knot formations were observed on the entire root system. • 3: Large knot formations were observed. • 4: Large knot formations were observed on the entire root system. [Damage degree]=[Σ(damage index×number of each damaged indexed seedling)/(4×number of seedlings investigated)]×100 Efficacy (%)=[1−(damage degree in treated plot/damage degree in non-treated plot)]×100

Data set [3] relates to Barber pole worm (Haemonchus contortus). Description: Insecticidal test against Barber pole worm (eggs, 96 well plate). Format: in vivo. As to conditions: 96 h, test solution B 100 ppm, 10 μl per well, 25° C. dark, 4 days after treatment, read-out: efficacy (unhatched eggs and inactive larvae relative to non-treated). As to the method: Compounds of the present invention were dissolved in dimethyl sulfoxide to prepare 1 wt % solutions. Then, distilled water was added to dilute the solutions to the prescribed concentration (100 ppm), and the obtained solutions were used in the following the Test Examples 9 to 12. 60 μl of a potato dextrose 1% agar medium was added to each well of a 96 well plate, and 30 μl of sterilized water containing eggs of Barber pole worm (Haemonchus contortus) (10 eggs/3 μl) was added to each well. Further, 10 μl per well of test solution B of the compounds of the present invention was added, and the plate was left at rest at 25° C. under dark conditions.

On to `CC(C)(C)C#Cc1cnc(CCNC(=O)c2ccccc2C(F)(F)F)c(Cl)c1` [1-003, N-[2-[3-chloro-5-(3,3-dimethyl-1-butynyl)pyridin-2-yl]ethyl]-2-(trifluoromethyl)benzamide], for which the melting point (usually the temperature, or range, at which the solid turns liquid) lay in the range of 90 to 92 °C. Further, in the data set with Botrytis cinerea, the pest or weed control at 500 µg/mL is no less than 70%. The pest or weed control at 500 µg/mL in data set [1] is no less than 70%. Further, the pest or weed control at 100 µg/mL in data set [2] is no less than 50%. Also, the pest or weed control at 100 µg/mL in data set [3] is no less than 50%.
On to `CC(CNC(=O)c1ccccc1C(F)(F)F)c1ncc(C#CC2CC2)cc1Cl` (centres unmarked) [1-007, N-[2-[3-chloro-5-(cyclopropylethynyl)pyridin-2-yl]propyl]-2-(trifluoromethyl)benzamide], for which the pest or weed control at 500 µg/mL (in the data set on Botrytis cinerea; in data set [1]) was no less than 70% in each case. For the same molecule, the pest or weed control at 100 µg/mL in data set [2] and in data set [3] was no less than 50% throughout.
For `CC(C)(CNC(=O)c1ccccc1C(F)(F)F)c1ncc(C#CC2CC2)cc1Cl` [1-008], the pest or weed control at 500 µg/mL (with Botrytis cinerea; in data set [1]) was no less than 70% in each case. In addition, the pest or weed control at 100 µg/mL in data set [3] is no less than 50%.
In the case of `O=C(NCC(c1ncc(C#CC2CC2)cc1Cl)C1CC1)c1ccccc1C(F)(F)F` (centres unmarked) [1-009], the pest or weed control at 500 µg/mL (in the data set on Botrytis cinerea; in data set [1]) was no less than 70% throughout. Further, the pest or weed control at 100 µg/mL in data set [2] and in data set [3] was no less than 50% in each case.
`C=C(CNC(=O)c1ccccc1C(F)(F)F)c1ncc(C#CC)cc1Cl` [1-012, N-[2-[3-chloro-5-(1-propynyl)pyridin-2-yl]-2-propenyl]-2-(trifluoromethyl)benzamide] came in with a melting point of 85 to 90 °C. The molecule also gave a pest or weed control at 500 µg/mL in the data set on Botrytis cinerea of no less than 70%. In data set [1], this molecule showed a pest or weed control at 500 µg/mL of no less than 70%. Besides, the pest or weed control at 100 µg/mL in data set [2] was no less than 50%. In data set [3], the pest or weed control at 100 µg/mL is no less than 50%.
In the case of `CSC(CNC(=O)c1ccccc1C(F)(F)F)c1ncc(C#CC2CC2)cc1Cl` (centres unmarked) [1-021], the pest or weed control at 500 µg/mL (with Botrytis cinerea; in data set [1]) was no less than 70% each time. Also, the pest or weed control at 100 µg/mL in data set [3] is no less than 50%.
In the case of `COC(c1ncc(C#CC2CC2)cc1Cl)C(C)NC(=O)c1ccccc1C(F)(F)F` (centres unmarked) [1-024], the pest or weed control at 500 µg/mL (with Botrytis cinerea; in data set [1]) was no less than 70% throughout. The pest or weed control at 100 µg/mL in data set [2] and in data set [3] was no less than 50% each time.
`COC(c1ncc(C#CC(C)(C)C)cc1Cl)C(C)NC(=O)c1ccccc1C(F)(F)F` (centres unmarked) [1-025] displayed a melting point of 36 to 38 °C. This molecule also registered a pest or weed control at 500 µg/mL in the data set on Botrytis cinerea of no less than 70%. Moreover, the pest or weed control at 500 µg/mL in data set [1] was no less than 70%. Also, the pest or weed control at 100 µg/mL in data set [2] was no less than 50%. Moreover, the pest or weed control at 100 µg/mL in data set [3] is no less than 50%.
On to `CC(NC(=O)c1ccccc1C(F)(F)F)C(OCc1ccccc1)c1ncc(C#CC2CC2)cc1Cl` (centres unmarked) [1-031, N-[2-benzyloxy-2-[3-chloro-5-(cyclopropylethynyl)pyridin-2-yl]-1-methylethyl]-2-(trifluoromethyl)benzamide], for which the pest or weed control at 500 µg/mL (in the data set with Botrytis cinerea; in data set [1]) was no less than 70% in each case.
In the case of `CC(CNC(=O)c1cccnc1Cl)c1ncc(C#CC2CC2)cc1Cl` (centres unmarked) [3-005], the pest or weed control at 500 µg/mL (in the data set on Botrytis cinerea; in data set [1]) was no less than 70% in each case. The pest or weed control at 100 µg/mL in data set [2] and in data set [3] was no less than 50% in each case.
As to `CC(C)(CNC(=O)c1cccnc1C(F)F)c1ncc(C#CC2CC2)cc1Cl` [3-007, N-[2-[3-chloro-5-(cyclopropylethynyl)pyridin-2-yl]-2-methylpropyl]-2-(difluoromethyl)nicotinamide], the pest or weed control at 500 µg/mL (in the data set on Botrytis cinerea; in data set [1]) was no less than 70% throughout. The pest or weed control at 100 µg/mL in data set [3] is no less than 50%.
Take `COC(c1ncc(C#CC2CC2)cc1Cl)C(C)NC(=O)c1cccnc1C(F)F` (centres unmarked) [3-021]: the pest or weed control at 500 µg/mL (in the data set with Botrytis cinerea; in data set [1]) was no less than 70% each time. Besides, the pest or weed control at 100 µg/mL in data set [2] and in data set [3] was no less than 50% each time.
Take `COC(c1ncc(C#CC2CC2)cc1Cl)C(C)NC(=O)c1nccnc1C(F)(F)F` (centres unmarked) [4-004]: the pest or weed control at 500 µg/mL (in the data set on Botrytis cinerea; in data set [1]) was no less than 70% in each case. The pest or weed control at 100 µg/mL in data set [3] is no less than 50%.
For `Cn1cc(C(=O)NCCc2ncc(C#CC(C)(C)C)cc2Cl)c(C(F)F)n1` [8-002], the pest or weed control at 500 µg/mL (in the data set with Botrytis cinerea; in data set [1]) was no less than 70% throughout. For the same molecule, the pest or weed control at 100 µg/mL in data set [2] and in data set [3] was no less than 50% each time.
Take `CC(CNC(=O)c1cn(C)nc1C(F)F)c1ncc(C#CC2CC2)cc1Cl` (centres unmarked) [8-007]: the pest or weed control at 500 µg/mL (with Botrytis cinerea; in data set [1]) was no less than 70% in each case. In addition, the pest or weed control at 100 µg/mL in data set [2] and in data set [3] was no less than 50% each time.
Take `Cn1cc(C(=O)NCC(C)(C)c2ncc(C#CC3CC3)cc2Cl)c(C(F)F)n1` [8-008]: the pest or weed control at 500 µg/mL (in the data set on Botrytis cinerea; in data set [1]) was no less than 70% in each case. In addition, the pest or weed control at 100 µg/mL in data set [3] is no less than 50%.
The molecule `C=C(CNC(=O)c1cn(C)nc1C(F)F)c1ncc(C#CC2CC2)cc1Cl` [8-011, N-[2-[3-chloro-5-(cyclopropylethynyl)pyridin-2-yl]-2-propenyl]-3-difluoromethyl-1-methyl-1H-pyrazole-4-carboxamide] displayed a melting point of 66 to 70 °C. In addition, the pest or weed control at 500 µg/mL with Botrytis cinerea is no less than 70%. In data set [1], this molecule came in with a pest or weed control at 500 µg/mL of no less than 70%. In addition, the pest or weed control at 100 µg/mL in data set [3] was no less than 50%.
For the molecule `Cn1cc(C(=O)NCC2(c3ncc(C#CC4CC4)cc3Cl)CC2)c(C(F)F)n1` [8-018, N-[[1-[3-chloro-5-(cyclopropylethynyl)pyridin-2-yl]cyclopropyl]methyl]-3-difluoromethyl-1-methyl-1H-pyrazole-4-carboxamide], the pest or weed control at 500 µg/mL (in the data set on Botrytis cinerea; in data set [1]) was no less than 70% throughout. Further, the pest or weed control at 100 µg/mL in data set [3] was no less than 50%.
Consider `COC(=O)C(CNC(=O)c1cn(C)nc1C(F)F)c1ncc(C#CC2CC2)cc1Cl` (centres unmarked) [8-022, 2-[3-chloro-5-(cyclopropylethynyl)pyridin-2-yl]-3-(3-difluoromethyl-1-methyl-1H-pyrazole-4-carboxamide)propionic acid methyl ester], for which the pest or weed control at 500 µg/mL (in the data set on Botrytis cinerea; in data set [1]) was no less than 70% each time.
In the case of `COC(c1ncc(C#CC2CC2)cc1Cl)C(C)NC(=O)c1cn(C)nc1C(F)F` (centres unmarked) [8-028, N-[2-[3-chloro-5-(cyclopropylethynyl)pyridin-2-yl]-2-methoxy-1-methylethyl]-3-difluoromethyl-1-methyl-1H-pyrazole-4-carboxamide], the pest or weed control at 500 µg/mL (in the data set with Botrytis cinerea; in data set [1]) was no less than 70% each time. Also, the pest or weed control at 100 µg/mL in data set [2] and in data set [3] was no less than 50% in each case.
Regarding `COC(c1ncc(C#CC2CC2)cc1Cl)C(C)NC(=O)c1sc(C)nc1C(F)F` (centres unmarked) [9-006a], the pest or weed control at 500 µg/mL (in the data set on Botrytis cinerea; in data set [1]) was no less than 70% in each case. Besides, the pest or weed control at 100 µg/mL in data set [2] and in data set [3] was no less than 50% each time.
